Assay results published in ChEMBL document CHEMBL4177522, “Effects of new fluorinated analogues of GABA, pregabalin bioisosters, on the ambient level and exocytotic release of [3H]GABA from rat brain nerve terminals” (Bioorg Med Chem, 2017).

System: not listed separately
Experiment: Effect on ambient level of L-[3H]glutamate in Wistar rat synaptosomes assessed as L-[3H]glutamate level at 100 uM preincubated for 20 mins (reference value: 24.68 +/- 1.49%)
Format: ADME, subcellular, Synaptosome

Row | Compound | Activity
1 | NCC(CC(=O)O)C(F)(F)C(F)F (racemic) | 25.29%
2 | NC[C@@](O)(CC(=O)O)C(F)(F)F | 22.72%
3 | NC[C@@H](CC(=O)O)C(F)(F)F | 24.75%
4 | CC(C)C[C@H](CN)CC(=O)O [PREGABALIN] | 26.2%

Species: Rattus norvegicus
Experiment: Decrease in KCl-induced exocytotic release of [3H]GABA in Wistar rat synaptosomes at 100 uM preincubated for 20 mins followed by Kcl addition in Ca2+ containing media measured after 5 mins
Format: functional, subcellular
Design: scale not given: the % may be the effect or the level left

Row | Compound | Activity
5 | NCC(CC(=O)O)C(F)(F)C(F)F (racemic) | 33%
6 | NC[C@@](O)(CC(=O)O)C(F)(F)F | 35%
7 | NC[C@@H](CC(=O)O)C(F)(F)F | 26%
8 | CC(C)C[C@H](CN)CC(=O)O [PREGABALIN] | 15%

System: not listed separately
Experiment: Effect on ambient level of [3H]GABA in Wistar rat synaptosomes assessed as [3H]GABA level at 100 uM preincubated for 20 mins (reference value: 14.20 +/- 1.03%)
Format: ADME, subcellular, Synaptosome

Row | Compound | Activity
9 | NCC(CC(=O)O)C(F)(F)C(F)F (racemic) | 14.63%
10 | NC[C@@](O)(CC(=O)O)C(F)(F)F | 15.55%
11 | NC[C@@H](CC(=O)O)C(F)(F)F | 13.35%
12 | CC(C)C[C@H](CN)CC(=O)O [PREGABALIN] | 14.1%

System: not listed separately
Experiment: Induction of plasma membrane depolarization in Wistar rat synaptosomes at 100 uM by rhodamine 6G based spectrofluorimeteric method
Format: subcellular, Synaptosome

Row | Compound | Activity
13 | NCC(CC(=O)O)C(F)(F)C(F)F (racemic) | Non-Toxic
14 | NC[C@@](O)(CC(=O)O)C(F)(F)F | Non-Toxic
15 | NC[C@@H](CC(=O)O)C(F)(F)F | Non-Toxic
16 | CC(C)C[C@H](CN)CC(=O)O [PREGABALIN] | Non-Toxic

System: not listed separately
Experiment: Induction of plasma membrane hyperpolarization in Wistar rat synaptosomes at 100 uM by rhodamine 6G based spectrofluorimeteric method
Format: subcellular, Synaptosome

Row | Compound | Activity
17 | NCC(CC(=O)O)C(F)(F)C(F)F (racemic) | Non-Toxic
18 | NC[C@@](O)(CC(=O)O)C(F)(F)F | Non-Toxic
19 | NC[C@@H](CC(=O)O)C(F)(F)F | Non-Toxic
20 | CC(C)C[C@H](CN)CC(=O)O [PREGABALIN] | Non-Toxic

System: not listed separately
Experiment: Effect on ambient level of [3H]GABA in Wistar rat synaptosomes assessed as [3H]GABA level at 100 uM preincubated for 20 mins in presence of GAT1 specific blocker NO-711 (reference value: 25.07 +/- 2.1%)
Format: ADME, subcellular, Synaptosome

Row | Compound | Activity
21 | NCC(CC(=O)O)C(F)(F)C(F)F (racemic) | 26.6%
22 | NC[C@@](O)(CC(=O)O)C(F)(F)F | 27.9%
23 | NC[C@@H](CC(=O)O)C(F)(F)F | 24.86%
24 | CC(C)C[C@H](CN)CC(=O)O [PREGABALIN] | 24.34%
